Columns and labels:
Beta-lactamase [1] = biological target: T1, Beta-lactamase (Escherichia coli K-12, UniProt P00811); assay: Inhibitory activity against Escherichia coli AmpC beta-lactamase.
Chymotrypsinogen A = Chymotrypsinogen A (Bos taurus, UniProt P00766); assay: Compound was tested for its specificity against alpha-chymotrypsin
Beta-lactamase [2] = biological target: T1, Beta-lactamase; assay: Compound was tested for its specificity against AmpC beta-lactamase
Homo sapiens = species: Homo sapiens; assay: Compound was tested for its specificity against Elastase

T1 sequence (P00811 whole entry): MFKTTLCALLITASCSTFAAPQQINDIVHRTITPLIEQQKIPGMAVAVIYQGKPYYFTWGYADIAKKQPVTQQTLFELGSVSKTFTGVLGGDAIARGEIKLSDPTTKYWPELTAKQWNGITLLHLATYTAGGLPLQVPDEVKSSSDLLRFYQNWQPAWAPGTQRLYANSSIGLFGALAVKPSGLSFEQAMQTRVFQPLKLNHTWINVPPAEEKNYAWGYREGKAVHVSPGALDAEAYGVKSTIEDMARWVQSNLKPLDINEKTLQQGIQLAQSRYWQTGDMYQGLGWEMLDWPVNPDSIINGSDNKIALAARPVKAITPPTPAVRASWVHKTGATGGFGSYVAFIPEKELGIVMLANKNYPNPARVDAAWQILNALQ

SMILES | Ki (Beta-lactamase [1]) [µM] | IC50 (Chymotrypsinogen A) [µM] | IC50 (Beta-lactamase [2]) [µM] | IC50 (Homo sapiens) [µM]
OB(O)c1ccc(-c2ccc(B(O)O)cc2)cc1 | 0.2 | – | – | –
CC(=O)c1ccc(B(O)O)s1 | 1.6 | – | – | –
O=Cc1ccccc1B(O)O | 25.3 | – | – | –
O=Cc1ccc(B(O)O)cc1 | 2.9 | – | – | –
OB(O)c1cc2ccccc2c2ccccc12 | 7 | – | – | –
OB(O)[C@@H]1CCOC1 | – | > 200 | 5 | > 200
OB(O)c1ccc(B(O)O)cc1 | 3.9 | – | – | –
OB(O)c1cccs1 | – | > 200 | – | 200
OB(O)c1ccco1 | > 100 | – | – | –
OB(O)c1ccc(Cl)s1 | 0.41 | > 100 | 2 | 200
OB(O)c1cc2ccccc2o1 | 0.22 | 14 | 0.6 | –
OB(O)c1ccc(C(F)(F)F)cc1 | 3 | – | – | –
OB(O)c1ccc(Br)cc1 | 3.6 | – | – | –
COc1ccc(B(O)O)cc1 | 5.9 | – | – | –
O=Cc1ccsc1B(O)O | 3.8 | – | – | –
OB(O)c1cccc(C(F)(F)F)c1 | 1.1 | > 200 | 5 | > 200
OB(O)c1ccsc1 | 22.1 | – | – | –
OB(O)c1ccc(F)cc1 | 6.4 | – | – | –
OB(O)c1cc2ccccc2s1 | – | 5 | – | –
OB(O)c1cccc2ccccc12 | 12 | – | – | –
O=C(O)c1cccc(B(O)O)c1 | > 100 | – | – | –
CCCCB(O)O [BUTYL BORONIC ACID] | > 100 | – | – | –
OB(c1ccccc1)c1ccccc1 [DIPHENYL BORINIC ACID] | > 100 | – | – | –
CN(C)c1cccc2c(S(=O)(=O)Nc3cccc(B(O)O)c3)cccc12 [M(DANSYLAMIDOPHENYL)BORONIC ACID] | 1.3 | > 100 | 5 | 50
OB(O)c1ccccc1 [PHENYLBORONIC ACID] | 10.5 | – | – | –
Cc1ccc(B(O)O)cc1 [TOLYL BORONIC ACID] | 5.4 | – | – | –

From ChEMBL document CHEMBL1131176, “Structure-based enhancement of boronic acid-based inhibitors of AmpC beta-lactamase” (J Med Chem, 1998)
